Results reported in patent US20210358575A1, “A METHOD FOR DETERMINING THE EFFICACY OF TREATMENT WITH A COMBINATION OF DRUGS IN A SUBJECT DIAGNOSED WITH A DISEASE AND A METHOD FOR CLASSIFYING THE UTILITY OF DRUG COMBINATIONS IN TREATMENT OF SAID SUBJECT” (priority 2018, published 2021).

What was measured:
[1] = tested on: live pathological cells (LPC) in bone marrow samples of AML patients; experiment: PharmaFlow PM test: ex vivo drug sensitivity of whole bone marrow samples, population pharmacodynamic models; assay type: cell-based, human; settings: typical population value
Description: Ex vivo drug sensitivity analysis was made using the PharmaFlow platform (previously termed ExviTech®) maintaining the bone marrow (BM) microenvironment. A minimum BM sample volume between one and two mL was collected by aspiration at AML diagnosis, before starting induction chemotherapy, and was processed by an automated method 24 hours after extraction. Samples were incubated with CYT, IDA and/or CYT+IDA for 48 hours. A more detailed description of the procedure has been published elsewhere (Bennett, et al 2014).
Evaluation of drug response was done by counting the number of live pathological cells (LPC) remaining after incubation at increasing drug concentrations (Upton and Mould 2014). Dying cells (apoptosis) were excluded using Annexin V-FITC. Pharmacological responses were analyzed using PD population-based models (Upton and Mould 2014) which essentially perform the fitting of the dependent variable (natural log of LPC) in a non-linear mixed-effects model to derive typical population values (fixed effects) and the magnitude of inter-patient and residual variability (random effects).
Model development was performed with the first-order conditional estimation method using interaction option with the software NONMEM (v7.2) (Beal, et al 1989-2001), according to the following equation: […]
Where LPC0 (LCTi0) parameter refers to the number of LPC (LCTi) after incubation in the absence of drug, Emax represents the maximum fractional decrease in LPC that the drug can elicit, EC50, is the drug concentration exerting half of Emax, and γ is the parameter governing the steepness of the LPC vs drug concentration (C) curve. For interaction analysis a Surface Interaction model (Greco, et al 1995) was used to estimate the degree of synergy, referred as a parameter, between both drugs. Interpatient variability (IPV) associated to all parameters was described by means of an exponential model of the components of variance. An additive error structure was used for the residual variability. Population PD models were built with bone marrow (BM) samples from 473 patients that were incubated with CYT, 456 with IDA and 443 with CYT+IDA. Bayesian estimation methods were then used to retrieve individual patient parameters based on their available exposure-response measurements in conjunction with the PD population parameters.
Individual response profiles normalized with respect to LPC0 (LCTi0), were integrated between the concentration points corresponding to the 20th and 80th percentiles of the distribution of estimated individual EC50 values, to obtain the values of the areas under the curves (AUCs) that were used as a descriptor of the ex vivo drug effect (i.e. the higher the AUC, the lower the cytotoxic effect (efficacy or potency) of the drug.

[2] = tested on: first-line AML patients treated with CYT+IDA; experiment: Validation of PM Test score vs clinical response in 112 first-line AML samples; assay type: in vivo, human; settings: 112 AML patients treated with CYT+IDA
Description: The Precision Medicine (PM) Test as described ranks treatments by a score that estimates the activity of each treatment across a population of patient samples. Higher score represents more ex vivo sensitivity to treatment, while lower score represents less ex vivo sensitivity to treatment, i.e. more ex vivo resistance. A particular format of the results of the PM Test is shown in FIG. 19, panels A and B, wherein the ranking of treatments by activity score from 100%=best to 0%=worst is shown (score may be represented graphically using a colour/tone gradient or categorisation). The following 3 categories are identified:
To validate the predictive power of these PM Test score results, the set of 123 samples treated homogeneously with CYT+IDA that were used in the correlation study of Example 1 were employed. Only 112 samples were used for validation. To evaluate the predictive power of the PM Test score, in the format shown in FIG. 19, panel A referring to a sensitive patient we can only use patients predicted to be sensitive or resistant. Treatments having intermediate scores are not considered sufficiently strong to predict any response. In the case of intermediate scores, other factors such as pharmacokinetics may be more important than the score. On the other hand, extreme scores are more likely to prevail over other factors such as pharmacokinetics.
The set of data of 112 patients treated with CYT+IDA represents a 1st line treatment of AML with a 72% response rate. This means that 72% of these 112 patients achieved Complete Remission (CR) clinically. The majority of patients were sensitive, with fewer resistant patients. Thus, the statistics are improved by calculating the % of cases in which the PM Test score predicted patients to be sensitive to the ex vivo treatment. This means selecting only the treatments to which the patient is expected to be very sensitive, with scores between 80-100%. The % of accurate prediction of sensitive (responsive) patients is referred as the Negative Predicted Value (NPV).
Samples whose score are between this variable threshold and 100% are analysed and predicted as sensitive because they have the top score. The results are shown for the monotherapies CYT and IDA, and for the combination treatment. Focus was placed on the combination treatment CYT+IDA that was administered to patients. Columns 8 to 10 of Table 4 show the results for the combined treatment CYT+IDA for different thresholds. The lowest threshold 55%, which means between 55 and 100%, identifies 93 out of the 112 samples, that would be predicted as sensitive. […] Thus, the prediction accuracy or NPV is 77/93=82.8%. As the threshold is increased (descending the 1st column of Table 4), the range of scores included is narrowed because the maximum is always 100%. Consequently, as the threshold is increased, the total number of samples included diminishes, reaching 0 samples at 100% (100-100%) and 18 samples at 95%. The decrease can be observed in the number of either sensitive or resistant samples (descending columns 8 and 9 of Table 4). […] Thus, the higher the score, the better the prediction (moreover, the intermediate sensitivity values provide less accurate prediction than the extreme values).

[3] = tested on: bone marrow samples of acute lymphoid leukemia (ALL) patients; experiment: Ex vivo test of single drugs, EC50 compared with population distribution, acute lymphoid leukemia samples; assay type: cell-based, human; settings: ALL second line patient VIVIA-PMALL04001, 48 h
Description: Bone marrow samples were obtained from three adult patients diagnosed with MM (VIVIA-PMMM010431, VIVIA-PMMM060111 and VIVIA-PMMM130061) and three adult patients diagnosed with ALL (VIVIA-PMALL07002, VIVIA-PMALL04001 and VIVIA-PMALL09001). Following the same experimental design as described for examples 1 and 3, said bone marrow samples were incubated for 48 h in well plates containing the single drugs shown in FIGS. 21 to 26. After the measurement of pathological populations by flow cytometry, pharmacological response parameters were estimated using population pharmacodynamic models. The most representative parameter of drug potency, the EC50, was used for a comparative analysis of the results provided by said bone marrow samples with respect to the statistical distribution of the same parameter observed in a population of samples and stored in the database. Such populations varied in size depending on the drug, being always over one hundred individuals in the case of MM and between 15 and 21 individuals in the case of ALL.

With CC(=O)[C@]1(O)Cc2c(O)c3c(c(O)c2[C@@H](O[C@H]2C[C@H](N)[C@H](O)[C@H](C)O2)C1)C(=O)c1ccccc1C3=O [Idarubicin, idarubicin] the EC50 ([1]; Homo sapiens, AML bone marrow samples, 48 h incubation) was 87 nM, the “EMAX (maximum fractional decrease in LPC)” value ([1]; set to 1 in the model, 48 h) was 1 and the “γ (steepness of LPC vs concentration curve)” value ([1]; 48 h) was 1.14. For the same compound, the “% Sens. (percentage of patients sensitive to therapy, NPV)” value ([2]; PM Test score ≥55) was 84.8%, the “Res. (number of patients resistant to therapy)” value ([2]; PM Test score ≥55) was 12 and the “Sens. (number of patients sensitive to therapy)” value ([2]; PM Test score ≥55) was 67. The “% Sens. (percentage of patients sensitive to therapy, NPV)” value ([2]; PM Test score ≥60) was 84.9%, the “Res. (number of patients resistant to therapy)” value ([2]; PM Test score ≥60) was 11 and the “Sens. (number of patients sensitive to therapy)” value ([2]; PM Test score ≥60) was 62. For the same compound, the “% Sens. (percentage of patients sensitive to therapy, NPV)” value ([2]; PM Test score ≥65) was 87.0%, the “Res. (number of patients resistant to therapy)” value ([2]; PM Test score ≥65) was 9 and the “Sens. (number of patients sensitive to therapy)” value ([2]; PM Test score ≥65) was 60. The “% Sens. (percentage of patients sensitive to therapy, NPV)” value ([2]; PM Test score ≥70) was 86.6%, the “Res. (number of patients resistant to therapy)” value ([2]; PM Test score ≥70) was 9 and the “Sens. (number of patients sensitive to therapy)” value ([2]; PM Test score ≥70) was 58. For the same compound, the “% Sens. (percentage of patients sensitive to therapy, NPV)” value ([2]; PM Test score ≥75) was 85.2%, the “Res. (number of patients resistant to therapy)” value ([2]; PM Test score ≥75) was 9 and the “Sens. (number of patients sensitive to therapy)” value ([2]; PM Test score ≥75) was 52. The “% Sens. (percentage of patients sensitive to therapy, NPV)” value ([2]; PM Test score ≥80) was 85.7%, the “Res. (number of patients resistant to therapy)” value ([2]; PM Test score ≥80) was 8 and the “Sens. (number of patients sensitive to therapy)” value ([2]; PM Test score ≥80) was 48. For the same compound, the “% Sens. (percentage of patients sensitive to therapy, NPV)” value ([2]; PM Test score ≥85) was 86.5%, the “Res. (number of patients resistant to therapy)” value ([2]; PM Test score ≥85) was 7 and the “Sens. (number of patients sensitive to therapy)” value ([2]; PM Test score ≥85) was 45. The “% Sens. (percentage of patients sensitive to therapy, NPV)” value ([2]; PM Test score ≥90) was 88.4%, the “Res. (number of patients resistant to therapy)” value ([2]; PM Test score ≥90) was 5 and the “Sens. (number of patients sensitive to therapy)” value ([2]; PM Test score ≥90) was 38. For the same compound, the “% Sens. (percentage of patients sensitive to therapy, NPV)” value ([2]; PM Test score ≥95) was 96.8%, the “Res. (number of patients resistant to therapy)” value ([2]; PM Test score ≥95) was 1 and the “Sens. (number of patients sensitive to therapy)” value ([2]; PM Test score ≥95) was 30. For the same compound, the “Res. (number of patients resistant to therapy)” value ([2]; PM Test score ≥100) was 0, the “Sens. (number of patients sensitive to therapy)” value ([2]; PM Test score ≥100) was 0 and the ex vivo activity [3] was “very potent activity”.
